Values after ≈ are worked out from the molar mass of the structure shown. Structures can show the parent of a compound that is named as a salt. Where two headings read alike, the source gives them in different places.

Data on 17 compounds can be found in patent US5158946A, “Cephalosporin derivatives and pharmaceutical compositions” (Beecham Group p.l.c., priority 1989, dated 1992).

Test [1] deals with E. coli (NCTC 10418). As to the kind of experiment: In vitro antibacterial activity, MIC against E. coli (NCTC 10418). It is filed as cell-based.
Test [2] concerns S. aureus (Oxford). As to the kind of experiment: In vitro antibacterial activity, MIC against S. aureus (Oxford). It is filed as cell-based.
Setting [3] is: Staphylococcus aureus, read-out: MIC.
Setting [4] is: Escherichia coli, NCTC10418, E. coli (NCTC 10418), read-out: MIC.

What is called MIC is the lowest concentration found to suppress growth. For `CO/N=C(\C(=O)N[C@@H]1C(=O)N2C(C(=O)O)=C(OC3C=C(C)C(=O)O3)CS[C@H]12)c1csc(N)n1` (single isomer, unassigned) [3 Isomer (a)], the MIC stood at 0.5 µg/mL (≈ 1.01 µM) in test [1] (E. coli (NCTC 10418)) and 4 µg/mL (≈ 8.07 µM) in test [2] (setting [3]).
On to `CO/N=C(\C(=O)N[C@@H]1C(=O)N2C(C(=O)O)=C(OC3C=C(C)C(=O)O3)CS[C@H]12)c1csc(N)n1` (single isomer, unassigned) [3 Isomer (b)], for which the MIC in test [1] (E. coli (NCTC 10418)) came to 0.12 µg/mL (≈ 0.242 µM); in test [2], 4 µg/mL (≈ 8.07 µM).
In the case of `CO/N=C(\C(=O)N[C@@H]1C(=O)N2C(C(=O)[O-])=C(SCC3=CC(=O)OC3)CS[C@H]12)c1csc(N)n1.[Na+]` [Example 1, Sodium 7β-[2-(2-Aminothiazol-4-yl)-2-(Z)-methoxyiminoacetamido]-3-(2,5-dihydro-2-oxofuran-4-ylmethylthio)ceph-3-em-4-carboxylate], the MIC is below 0.03 µg/mL in test [1] (setting [4]) and 0.25 µg/mL in test [2] (setting [3]).
On the same counts, the results for `CO/N=C(\C(=O)N[C@@H]1C(=O)N2C(C(=O)O)=C(SC3=CC(=O)OC3)CS[C@H]12)c1csc(N)n1` [Example 2, Sodium 7β-[2-(2-Aminothiazol-4-yl)-2-(Z)-methoxyiminoacetamido]-3-(2,5-dihydro-2-oxofuran-4-ylthio)ceph-3-em-4-carboxylate] are 0.12 µg/mL and 1 µg/mL.
The like results for `CO/N=C(\C(=O)N[C@@H]1C(=O)N2C(C(=O)O)=C(Sc3cc(C)oc(=O)c3)CS[C@H]12)c1csc(N)n1` [Example 4, Sodium 7β-[2-(2-Aminothiazol-4-yl)-2-(Z)-methoxyiminoacetamido]-3-(6-methyl-2-oxo-2H-pyran-4-ylthio)ceph-3-em-4-carboxylate] were, in that order, 0.25 µg/mL and 1 µg/mL.
The like results for `CO/N=C(\C(=O)N[C@@H]1C(=O)N2C(C(=O)[O-])=C(CSC3=CC(=O)OC3)CS[C@H]12)c1csc(N)n1.[Na+]` [Example 5, Sodium 7β-[2-(2-Aminothiazol-4-yl)-2-(Z)-methoxyiminoacetamido]-3-(2,5-dihydro-2-oxofuran-4-ylthiomethyl)ceph-3-em-4-carboxylate] were, in that order, below 0.03 µg/mL and 0.25 µg/mL.
Take `Nc1nc(/C(=N/O)C(=O)N[C@@H]2C(=O)N3C(C(=O)O)=C(CSC4=CC(=O)OC4)CS[C@H]23)cs1` [Example 6, 7β-[2-(2-Aminothiazol-4-yl)-2-(Z)-hydroxyiminoacetamido]-3-(2,5-dihydro-2-oxofuran-4-ylthiomethyl)ceph-3-em-4-carboxylic acid]: the results for the MIC in test [1] (setting [4]) and in test [2] (setting [3]) were below 0.03 µg/mL and 0.12 µg/mL (≈ 0.241 µM), respectively.
The like results for `CO/N=C(\C(=O)N[C@@H]1C(=O)N2C(C(=O)[O-])=C(SCC3=CCOC3=O)CS[C@H]12)c1csc(N)n1.[Na+]` [Example 7, Sodium 7β-[2-(2-Aminothiazol-4-yl)-2-(Z)-methoxyiminoacetamido]-3-(2,5-dihydro-2-oxofuran-3-ylmethylthio)ceph-3-em-4-carboxylate] were, in that order, below 0.03 µg/mL and 0.5 µg/mL.
As to `Nc1nc(/C(=N/O)C(=O)N[C@@H]2C(=O)N3C(C(=O)O)=C(SCC4=CCOC4=O)CS[C@H]23)cs1` [Example 8, 7β-[2-(2-Aminothiazol-4-yl)-2-(Z)-hydroxyiminoacetamido]-3-(2,5-dihydro-2-oxofuran-3-ylmethylthio)ceph-3-em-4-carboxylic acid], the minimum inhibitory concentration (MIC) in test [1] (setting [4]) came to 0.12 µg/mL (≈ 0.241 µM); in test [2] (setting [3]) it was 0.25 µg/mL (≈ 0.502 µM).
Consider `CO/N=C(\C(=O)N[C@@H]1C(=O)N2C(C(=O)[O-])=C(SC3CCOC3=O)CS[C@H]12)c1csc(N)n1.[Na+]` (stereo partly drawn) [Example 9, Sodium 7β-[2-(2-Aminothiazol-4-yl)-2-(Z)-methoxyiminoacetamido]-3-(2-oxotetrahydrofuran-3-ylthio)ceph-3-em-4-carboxylate], for which the figures for the MIC in test [1] (setting [4]) and in test [2] (setting [3]) were 0.12 µg/mL and 2 µg/mL, respectively.
The like results for `Nc1nc(/C(=N/O)C(=O)N[C@@H]2C(=O)N3C(C(=O)O)=C(SCC4=CC(=O)OC4)CS[C@H]23)cs1` [Example 12, 7β-[2-(2-Aminothiazol-4-yl)-2-(Z)-hydroxyiminoacetamido]-3-(2,5-dihydro-2-oxofuran-4-ylmethylthio)ceph-3-em-4-carboxylic acid] were, in that order, 0.12 µg/mL (≈ 0.241 µM) and 0.25 µg/mL (≈ 0.502 µM).
On the same counts, the results for `CO/N=C(\C(=O)N[C@@H]1C(=O)N2C(C(=O)[O-])=C(CSC3=C(Cl)C(=O)OC3)CS[C@H]12)c1csc(N)n1.[Na+]` [Example 13, Sodium 7β-[2-(2-Aminothiazol-4-yl)-2-(Z)-methoxyiminoacetamido]-3-(3-chloro-2,5-dihydro-2-oxofuran-4-ylthiomethyl)ceph-3-em-4-carboxylate] are below 0.03 µg/mL and 0.25 µg/mL.
The like results for `CO/N=C(\C(=O)N[C@@H]1C(=O)N2C(C(=O)O)=C(CSc3cc(C)oc(=O)c3)CS[C@H]12)c1csc(N)n1` [Example 14, Sodium 7β-[2-(2-Aminothiazol-4-yl)-2-(Z)-methoxyiminoacetamido]-3-(6-methyl-2-oxo-2H-pyran-4-ylthiomethyl)ceph-3-em-4-carboxylate] were, in that order, below 0.03 µg/mL and 0.5 µg/mL.
Regarding `CO/N=C(\C(=O)N[C@@H]1C(=O)N2C(C(=O)O)=C(CSc3ccoc(=O)c3)CS[C@H]12)c1csc(N)n1` [Example 15, Sodium 7β-[2-(2-Aminothiazol-4-yl)-2-(Z)-methoxyiminoacetamido]-3-(2-oxo-2H-pyran-4-ylthiomethyl)ceph-3-em-4-carboxylate], the MIC is below 0.03 µg/mL in test [1] (setting [4]) and 0.25 µg/mL in test [2] (setting [3]).
On the same counts, the results for `Nc1nc(/C(=N/OCC(=O)O)C(=O)N[C@@H]2C(=O)N3C(C(=O)O)=C(CSC4=CC(=O)OC4)CS[C@H]23)cs1` [Example 16, 7β-[2-(2-Aminothiazol-4-yl)-2-(Z)-carboxymethoxyiminoacetamido]-3-(2,5-dihydro-2-oxofuran-4-ylthiomethyl)ceph-3-em-4-carboxylic acid, disodium salt] are below 0.06 µg/mL and 8 µg/mL.
The like results for `Cc1cc(SCC2=C(C(=O)O)N3C(=O)[C@@H](NC(=O)/C(=N\O)c4csc(N)n4)[C@H]3SC2)cc(=O)o1` [Example 17, 7β-[2-(2-Aminothiazol-4-yl)-2-(Z)-hydroxyiminoacetamido]-3-(6-methyl-2-oxo-2H-pyran-4-ylthiomethyl)ceph-3-em-4-carboxylic acid] were, in that order, 0.06 µg/mL (≈ 0.115 µM) and 0.25 µg/mL (≈ 0.477 µM).
Take `CO/N=C(\C(=O)N[C@@H]1C(=O)N2C(C(=O)[O-])=C(OCC3=CC(=O)OC3)CS[C@H]12)c1csc(N)n1.[Na+]` [Example 22, Sodium 7β-[2-(2-Aminothiazol-4-yl)-2-(Z)-methoxyiminoacetamido]-3-(2,5-dihydro-2-oxofuran-4-ylmethyloxy)ceph-3-em-4-carboxylate]: the MIC turned out to be 0.06 µg/mL in test [1] (setting [4]) and 2 µg/mL in test [2] (setting [3]).
